{"source": "patent US9782368B2", "about": "“Use of N,N-bis-2-mercaptoethyl isophthalamide” (EMERAMED LIMITED, priority 2014, dated 2017)", "key": {"[1]": {"tested_on": "IL-6 and IL-8 secretion in BEAS-2B cells", "experiment": "Particle-induced secretion of pro-inflammatory cytokines (ELISA) in BEAS-2B cells", "assay_type": "cell-based", "description": "Secretion of the pro-inflammatory cytokines interleukin (IL)-6, IL-8 (as well as GM-CSF and MCP-1) into cell media in response to particle exposure was measured in A549 and BEAS-2B cells using the following method.\nLung epithelial cells were seeded at 5×10^4 in 24-well plates. After pre-incubation with NBMI, the anti-oxidant compound, N-acetyl-L-cysteine (NAC), which was used as a positive control, or vehicle, for 3 hours the medium was removed.\nFresh media containing various particles (as below) in different concentrations was in a total volume of 0.5 ml for an additional 24 hours. The supernatants were then separated from the cells by centrifugation.\nIL-8, IL-6, GM-CSF and MCP-1 were measured in the cell free fluid using the DuoSet ELISA Development kit (R&D Systems, Abingdon, UK) according to manufacturer's protocol.\nExposure to medium only served as negative control. Each experiment was performed twice with 4 replicates.\nThe effect of pre-incubation with 50 μM NBMI on particle-induced cytokine formation was tested at various concentrations of relevant particles."}, "[2]": {"tested_on": "cigarette smoke (CS)-induced airway disease", "experiment": "In vivo smoking mouse study I (14-day cigarette smoke exposure)", "parameters": "species or system BALB/c mice", "description": "A mouse model of cigarette smoke (CS)-induced airway disease was developed, in which four groups of BALB/c mice were exposed to CS (nose-only) using a cigarette smoking machine that produces a combination of side-stream and mainstream smoke from filtered research cigarettes, 7 days a week over 2 weeks.\nAs part of a 14-day dose-finding study, three groups of mice were administered NMBI subcutaneously (5, 30 or 150 mg/kg) before each exposure to CS. Inflammatory cell counts in bronchoalveolar lavage (BAL), flow cytometry (FACS) analysis and cytokine analysis in BAL were carried out.\nFemale BALB/c mice (Harlem laboratories, Netherlands) were used in this study. They were housed in plastic cages with absorbent bedding material and were maintained on a 12 hour daylight cycle. Food and water were provided ad libitum. Their care and the experimental protocols were approved by the Regional Ethics Committee on Animal Experiments in Umeå. Mice were 12 weeks of age when the cigarette exposure protocol started.\nAnimals were subjected to inhaled CS (both side-stream and main-stream smoke). The CS exposure was performed in a microprocessor-controlled cigarette smoking machine (TE-10, Teague Enterprises, CA, USA) that produces smoke from research cigarettes (1R5F, University of Kentucky, Lexington, Ky., USA).\nCigarettes are automatically loaded into a wheel, lit, puffed and ejected. Each cigarette was smoked for 10 minutes and the airflow through the machine was set to 12 L/min. Cigarettes were stored at −20° C. until needed. Mice were subjected to 4 cigarettes every 10 minutes×3 (i.e. 12 cigarettes over 30 minutes), once a day, 7 days a week, over two weeks. The smoke was transferred into a smoke tower (EMMS, UK) providing equal and simultaneous exposure to the CS.\nMice were placed into plastic chambers and subjected to CS by “nose-only” inhalation. Control mice were handled every day and breathed room-air, but were not taken out of their cages.\nAccordingly, the 5 treatment groups are as follows: • 1. Daily exposure to clean air (Placebo Group) • 2. Daily exposure to CS (CS-Exposed Placebo Group) • 3. Daily exposure to CS; treated with NBMI at a 5 mg/kg dose (NBMI 5 mg/kg Group) • 4. Daily exposure to CS; treated with NBMI at a 30 mg/kg dose (NBMI 30 mg/kg Group) • 5. Daily exposure to CS; treated with NBMI at a 150 mg/kg dose (NBMI 150 mg/kg Group)\nOn Day 15, mice were exsanguinated and subjected to bronchoalveolar lavage (BAL). The lungs were lavaged four times via the tracheal tube with a total volume of 1 mL+3×1 mL Ca^2+/Mg^2+ free Hanks' balanced salt solution (HBSS, Sigma-Aldrich, Steinheim, Germany).\nThe BAL fluid was then immediately centrifuged (10 minutes, 4° C., 1750 rpm). After removing the supernatant until further analysis, the cell pellet was re-suspended and then diluted with 0.5 mL PBS. Leukocytes were counted manually in a hemocytometer so that 20,000 cells could be loaded and centrifuged using a Cytospin® centrifuge (Shandon® cytospin 3 cyto-centrifuge, cell preparation system).\nCytocentrifuged preparations were stained with May-Grünwald-Giemsa reagent and differential cell counts of pulmonary inflammatory cells (macrophages, neutrophils, lymphocytes, and eosinophils) were made using standard morphological criteria and counting 300 cells per cytospin preparation.\nInflammatory mediators in BAL and serum were analyzed for the presence of interleukin (IL)-1α, IL-1β, IL-2, IL-3, IL-4, IL-5, IL-6, IL-9, IL-10, IL-12p40, IL-12p70, IL-13, IL17, Eotaxin, G-CSF, INFγ, GM-CSF, KC, MCP-1, MIP-1α, MIP-Iβ, RANTES and TNFα. All cytokine analyses were performed simultaneously with a multiplex kit (BioPlex™ Pro Mouse Cytokine 23-plex panel) according to the manufacturer's instructions (Bio-Rad) and analyzed on a Bio-Plex™ system (Luminex Bio-Plex™ 200 System, Bio-Rad, Hercules, Calif.).\nLeukocytes from BAL were analyzed with flow cytometry using a BD FACSort™ (Becton Dickinson, San Jose, Calif.). […]"}, "[3]": {"details": "TiO2 P25 100 μg/cm^2, pre-incubation 50 μM NBMI"}}}
{"smiles": "O=C(NCCS)c1cccc(C(=O)NCCS)c1", "note": "[NBMI, N,N-bis-2-mercaptoethyl isophthalamide]", "values": [{"measurement": "reduction of secretion of IL-6", "setting": "[1]; [3]", "value": 37, "unit": "%"}, {"measurement": "reduction of secretion of IL-8", "setting": "[1]; [3]", "value": 49, "unit": "%"}, {"measurement": "reduction of secretion of IL-6", "setting": "[1]; Urban Dust 100 μg/cm^2, pre-incubation 50 μM NBMI", "value": 47, "unit": "%"}, {"measurement": "MIP-1α levels in BAL vs CS-Exposed Placebo Group", "setting": "[2]; 5 mg/kg s.c., p<0.05", "value": "lowered"}, {"measurement": "IL-10 level in serum", "setting": "[2]; 30 mg/kg s.c.", "value": "increased levels"}, {"measurement": "Eotaxin level in serum vs CS-Exposed Placebo Group", "setting": "[2]; 150 mg/kg s.c.", "value": "significantly lowered levels"}, {"measurement": "IL-1β level in serum vs CS-Exposed Placebo Group", "setting": "[2]; 150 mg/kg s.c.", "value": "significantly lowered levels"}, {"measurement": "IL-3 level in serum vs CS-Exposed Placebo Group", "setting": "[2]; 150 mg/kg s.c.", "value": "significantly lowered levels"}, {"measurement": "IL-6 level in serum vs CS-Exposed Placebo Group", "setting": "[2]; 150 mg/kg s.c.", "value": "significantly lowered levels"}, {"measurement": "MIP-1α level in serum vs CS-Exposed Placebo Group", "setting": "[2]; 150 mg/kg s.c.", "value": "significantly lowered levels"}, {"measurement": "RANTES level in serum vs CS-Exposed Placebo Group", "setting": "[2]; 150 mg/kg s.c.", "value": "significantly lowered levels"}, {"measurement": "wounds at injection site", "setting": "[2]; 150 mg/kg s.c., 14 days", "value": "established wounds in the neck"}, {"measurement": "ulceration", "setting": "[2]; 5 and 30 mg/kg s.c., 14 days", "value": "no signs of ulceration"}, {"measurement": "weight change from Day 1 to Day 15", "setting": "[2]; CS-exposed, regardless of dose of NBMI", "value": "lost weight significantly"}, {"measurement": "final weight", "setting": "[2]; Day 15, 5 mg/kg s.c., CS-exposed, vs CS-exposed 20.3±0.3 g, p<0.05", "value": "19.5 ± 0.3", "unit": "g"}, {"measurement": "neutrophils in BAL vs mice just exposed to CS", "setting": "[2]; Day 15, 30 mg/kg s.c.", "value": "significantly lower numbers of neutrophils"}, {"measurement": "neutrophils in BAL vs mice just exposed to CS", "setting": "[2]; Day 15, 150 mg/kg s.c.", "value": "significantly lower numbers of neutrophils"}, {"measurement": "CD4 cells and CD8 cells in BAL fluid", "setting": "[2]; all groups (5, 30, 150 mg/kg)", "value": "no significant differences"}]}
